Reference: publication PMC3997483, “Aminostyrylbenzofuran Directly Reduces Oligomeric Amyloid-β and Reverses Cognitive Deficits in Alzheimer Transgenic Mice” (PLoS ONE, 2014)

What was measured:
[1] = Metabolic stability in liver microsomes; assay type: in vitro ADME, human
[2] = Plasma and brain pharmacokinetics (BBB penetration) after PO in rats; assay type: in vivo; conditions: SD, rat, rats PO 2.5 mg/kg
Experimental: Pharmacokinetics profile of KMS88009 was obtained using ICR mice, SD rats, beagle dogs and cynomolgus monkeys. Animals were fasted overnight before KMS88009 administration. Mice were divided into 2 groups to receive KMS88009 as a single dose of 2.1 mg/kg intravenous (IV) bolus or 10 mg/kg orally (PO) by gavage. Additionally, KMS88009 was administered orally to estimate the BBB penetration in mice (10, 30 and 100 mg/kg). […] Dog received KMS88009 either as an IV bolus (1 mg/kg) via the great saphenous vein or by oral gavage (4 mg/kg). KMS88009 was administrated to monkeys as an IV bolus (1 mg/kg) via the femoral vein or by oral gavage (4 mg/kg). Vehicle for IV and PO administration was DMSO/tween-20/saline (3.3∶[…]∶79.6). All animals (n = 3 per group) were sacrificed and concentration of KMS88009 in plasma and brain were measured at 1/12, 1/4, 1/2, 1, 2, 4, 10 and 24 hr after IV administration and at 1/2, 1, 2, 4, 10 and 24 hr after PO administration. Brain samples were weighed and Daunce-homogenized in 10-fold volume of ice-chilled 4% bovine serum albumin (BSA) solution at room temperature. Plasma and brain homogenates were kept frozen at −70°C until analysis. The levels of KMS88009 were determined by the LC-MS/MS analysis. Pharmacokinetic parameters, time to the maximum concentration (Tmax), maximum concentration (Cmax), elimination half-life (T1/2), volume of distribution (Vd), clearance (Cl) and mean residual time (MRT), of KMS88009 were calculated based on plasma concentration-time data by a non-compartmental method using WinNonlin Version 5.2 (Pharsight, USA). Area under the curve from 0 to 24 hr (AUC0-24h) and area under the curve from 0 to infinity (AUCINF) were obtained by linear and log linear trapezoidal summations.

APP/PS1 TG mice = experiment: Morris water maze, prophylactic trial; assay type: in vivo, mouse; conditions: for swimming time % within the target quadrant (probe trial): APP/PS1 TG mice, vehicle TG 23.4%, WT 44.3%; for Latency (hidden platform): TG mice
Experimental: Behavioral tests were performed in the following sequence: Y-maze (day 1), Morris water maze (day 4 to 12) and contextual fear conditioning (day 26 to 27). To reduce stress, contextual fear conditioning was carried out 2 weeks after the Morris water maze task. In the therapeutic trial, APP/PS1 TG mice were treated with KMS88009 (30 mg/kg/day) for 3 months from 9 to 12 months of age. Y-maze tests short-term spatial working memory. Y-maze is a 3-armed (40 L×10 W×12 H cm) horizontal maze in which the arms are symmetrically disposed at 120° angles from each other. Mice were placed at the end of one arm and allowed to move freely through the maze during a 5-min session. Arm entry was considered completed when the hind paws of the mouse were completely placed in the arm. Alternation was defined as successive entries into the 3 arms on overlapping triplet sets. The series of arm entries was recorded via video recorders. The percentage of alternation was defined according to the following equation: % alternation = [(number of alternations)/(total arm entries - 2)] ×100. Mice performing fewer than 7 alternations in 5 min were excluded from the subsequent analysis to accurately determine alternation scores. Morris water maze was used to measure spatial learning and memory. A stainless pool apparatus with a diameter of 120 cm was used. A clear escape platform (circle, 12×12 cm) was located 1.0 cm below (hidden) the water surface containing white nontoxic paint. The temperature of water was kept constant throughout the experiment (21±1°C). The visual cues, for mice to recognize the environment and direction, are placed on the walls around the pool. The training was consisted of 8 consecutive days of testing with 4 trials per day. When a mouse was located on the escape platform, it was permitted to remain on the platform for 15 sec. […] Then the subject was returned to its home cage and allowed to dry up after each trial. The platform location was kept constant and the starting position was varied. Each mouse was placed in the water with their nose pointing toward the wall at one of the starting points in a random manner. During each trial session, the time taken to find the hidden platform (latency) was recorded using a video camera-based Ethovision System (Nodulus, Nertherlands). On the 9th day, each mouse was tested on a probe trial. The platform was removed from pool and the mice were allowed to swim for 60 sec to search. Swimming time was recorded during mice were in the pool quadrant where the platform had been previously located. Mice, which float or jump from platform, were eliminated from the experiment since these responses may be incompatible with the behaviors needed to locate and learn the platform position. In addition, animals with difficulty in swimming were also excluded from this study. Fear conditioning task was measured to test the ability to learn and remember an association between an aversive experience and environmental cues. Contextual fear conditioning evaluation was performed using a fear-conditioning chamber (Courlbourn, USA) equipped with a computer-controlled fear conditioning system (FreActimetrics, USA). On the first day of training, each mouse was placed in the conditioning chamber and left to adjust for 2 min. Fear conditioning test was performed with conditional stimulus (CS) of sound (75 dB) for 20 sec followed by unconditional stimulus (US) of electric foot-shock (0.5 mA) for the last 2 sec in CS. After 1 min, the subject was returned to its home cage. After 24 hr, retention test was performed. […] Freezing response was measured without CS or US. Freezing behavior was defined as the complete absence of any movement except for respiration and heartbeat. Animals with no response to the foot-shock during training were excluded from the analysis. Data analyses including recordings of all behavioral responses were performed by keeping research colleagues blind.

For COc1ccc2cc(C=Cc3ccc(N(C)C)cc3)oc2c1 [KMS88009, 6-methoxy-2-(4-dimethylaminostyryl) benzofuran], the Metabolic stability ([1]; human liver microsomes 1 mg/mL, 5 µM, symbol) was “√ (Mean percent value is confirmed over 90% at 60 min.)”, the remaining at 1 h, 5 µM ([1]; human liver microsomes, read-out: Remaining % of parent molecule at 60 min.) was 92.7 ± 0.4% and the Cmax ([2]; brain) was 1310 ng/g. The Tmax ([2]; plasma, same data as Table 3) was 1.7 h, the AUC(0-t) ([2]; plasma, same data as Table 3, read-out: AUC0–24h) was 908 ng·h/mL and the “swimming time % within the target quadrant (probe trial)” value (APP/PS1 TG mice; PO 10 mg/kg/day) was 40.4%. For the same molecule, the “swimming time % within the target quadrant (probe trial)” value (APP/PS1 TG mice; PO 30 mg/kg/day) was 39.7%, the “swimming time % within the target quadrant (probe trial)” value (APP/PS1 TG mice; PO 100 mg/kg/day) was 37.6% and the “Latency (hidden platform)” value (APP/PS1 TG mice; Day 1, dose group + (10 mg/kg/day)) was 50.5 ± 2.1 s. The “Latency (hidden platform)” value (APP/PS1 TG mice; Day 1, dose group ++ (30 mg/kg/day)) was 49.2 ± 2.4 s, the “Latency (hidden platform)” value (APP/PS1 TG mice; Day 1, dose group +++ (100 mg/kg/day)) was 48.3 ± 3.0 s and the “Latency (hidden platform)” value (APP/PS1 TG mice; Day 2, dose group + (10 mg/kg/day)) was 39.8 ± 2.7 s. For the same molecule, the “Latency (hidden platform)” value (APP/PS1 TG mice; Day 2, dose group ++ (30 mg/kg/day)) was 38.3 ± 3.0 s, the “Latency (hidden platform)” value (APP/PS1 TG mice; Day 2, dose group +++ (100 mg/kg/day)) was 37.6 ± 5.2 s and the “Latency (hidden platform)” value (APP/PS1 TG mice; Day 3, dose group + (10 mg/kg/day)) was 31.1 ± 2.5 s. For the same molecule, the “Latency (hidden platform)” value (APP/PS1 TG mice; Day 3, dose group ++ (30 mg/kg/day)) was 30.6 ± 3.3 s, the “Latency (hidden platform)” value (APP/PS1 TG mice; Day 3, dose group +++ (100 mg/kg/day)) was 34.3 ± 4.3 s and the “Latency (hidden platform)” value (APP/PS1 TG mice; Day 4, dose group + (10 mg/kg/day)) was 35.1 ± 2.8 s. For the same molecule, the “Latency (hidden platform)” value (APP/PS1 TG mice; Day 4, dose group ++ (30 mg/kg/day)) was 32.9 ± 3.0 s, the “Latency (hidden platform)” value (APP/PS1 TG mice; Day 4, dose group +++ (100 mg/kg/day)) was 32.0 ± 4.0 s and the “Latency (hidden platform)” value (APP/PS1 TG mice; Day 5, dose group + (10 mg/kg/day)) was 41.8 ± 3.2 s. The “Latency (hidden platform)” value (APP/PS1 TG mice; Day 5, dose group ++ (30 mg/kg/day)) was 36.3 ± 4.2 s, the “Latency (hidden platform)” value (APP/PS1 TG mice; Day 5, dose group +++ (100 mg/kg/day)) was 29.6 ± 4.1 s and the “Latency (hidden platform)” value (APP/PS1 TG mice; Day 6, dose group + (10 mg/kg/day)) was 32.9 ± 1.9 s. For the same molecule, the “Latency (hidden platform)” value (APP/PS1 TG mice; Day 6, dose group ++ (30 mg/kg/day)) was 29.3 ± 3.9 s, the “Latency (hidden platform)” value (APP/PS1 TG mice; Day 6, dose group +++ (100 mg/kg/day)) was 33.4 ± 4.8 s and the “Latency (hidden platform)” value (APP/PS1 TG mice; Day 7, dose group + (10 mg/kg/day)) was 31.7 ± 2.6 s. The “Latency (hidden platform)” value (APP/PS1 TG mice; Day 7, dose group ++ (30 mg/kg/day)) was 28.6 ± 3.5 s, the “Latency (hidden platform)” value (APP/PS1 TG mice; Day 7, dose group +++ (100 mg/kg/day)) was 30.0 ± 2.6 s and the “Latency (hidden platform)” value (APP/PS1 TG mice; Day 8, dose group + (10 mg/kg/day)) was 26.6 ± 3.0 s. For the same molecule, the “Latency (hidden platform)” value (APP/PS1 TG mice; Day 8, dose group ++ (30 mg/kg/day)) was 25.6 ± 3.0 s and the “Latency (hidden platform)” value (APP/PS1 TG mice; Day 8, dose group +++ (100 mg/kg/day)) was 27.9 ± 4.6 s.
